Test results as given in PubChem BioAssay (NCI).
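Step 1: Grow cells in 96-well plates. Step 2: Expose to compound for 48 hours at 5 concentrations. Step 3: Interpolate endpoints linearly; if unreached, use highest concentration. TGI is the concentration that stops growth completely.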

Key:
Test in all cases: DTP human tumour cell line panel, 48 h
[1] = system: HOP-92 NSCLC
[2] = system: SK-OV-3 ovarian
[3] = system: U251 CNS
[4] = system: A549 NSCLC
[5] = system: RPMI-8226 leukemia
[6] = system: BT-549 breast
[7] = system: OVCAR-4 ovarian
[8] = system: SK-MEL-5 melanoma
[9] = system: SNB-19 CNS
[10] = system: MCF7 breast
[11] = system: KM12 colon
[12] = system: EKVX NSCLC

Measured: TGI

NC(N)=NC(N)=Nc1ccc(S(=O)(=O)O)cc1
> 100 µM: all assays above
